Results: ChEMBL document CHEMBL5154806, “Synthesis and Profiling of Highly Selective Inhibitors of Methyltransferase DOT1L Based on Carbocyclic C-Nucleosides” (J Med Chem, 2022)

Legend:
[1] = target: T1, Histone-lysine N-methyltransferase, H3 lysine-79 specific (Homo sapiens, UniProt Q8TEK3); test: Binding affinity to human DOT1L assessed as binding free energy difference
Target sequence in this assay (Q8TEK3 whole entry, looked up): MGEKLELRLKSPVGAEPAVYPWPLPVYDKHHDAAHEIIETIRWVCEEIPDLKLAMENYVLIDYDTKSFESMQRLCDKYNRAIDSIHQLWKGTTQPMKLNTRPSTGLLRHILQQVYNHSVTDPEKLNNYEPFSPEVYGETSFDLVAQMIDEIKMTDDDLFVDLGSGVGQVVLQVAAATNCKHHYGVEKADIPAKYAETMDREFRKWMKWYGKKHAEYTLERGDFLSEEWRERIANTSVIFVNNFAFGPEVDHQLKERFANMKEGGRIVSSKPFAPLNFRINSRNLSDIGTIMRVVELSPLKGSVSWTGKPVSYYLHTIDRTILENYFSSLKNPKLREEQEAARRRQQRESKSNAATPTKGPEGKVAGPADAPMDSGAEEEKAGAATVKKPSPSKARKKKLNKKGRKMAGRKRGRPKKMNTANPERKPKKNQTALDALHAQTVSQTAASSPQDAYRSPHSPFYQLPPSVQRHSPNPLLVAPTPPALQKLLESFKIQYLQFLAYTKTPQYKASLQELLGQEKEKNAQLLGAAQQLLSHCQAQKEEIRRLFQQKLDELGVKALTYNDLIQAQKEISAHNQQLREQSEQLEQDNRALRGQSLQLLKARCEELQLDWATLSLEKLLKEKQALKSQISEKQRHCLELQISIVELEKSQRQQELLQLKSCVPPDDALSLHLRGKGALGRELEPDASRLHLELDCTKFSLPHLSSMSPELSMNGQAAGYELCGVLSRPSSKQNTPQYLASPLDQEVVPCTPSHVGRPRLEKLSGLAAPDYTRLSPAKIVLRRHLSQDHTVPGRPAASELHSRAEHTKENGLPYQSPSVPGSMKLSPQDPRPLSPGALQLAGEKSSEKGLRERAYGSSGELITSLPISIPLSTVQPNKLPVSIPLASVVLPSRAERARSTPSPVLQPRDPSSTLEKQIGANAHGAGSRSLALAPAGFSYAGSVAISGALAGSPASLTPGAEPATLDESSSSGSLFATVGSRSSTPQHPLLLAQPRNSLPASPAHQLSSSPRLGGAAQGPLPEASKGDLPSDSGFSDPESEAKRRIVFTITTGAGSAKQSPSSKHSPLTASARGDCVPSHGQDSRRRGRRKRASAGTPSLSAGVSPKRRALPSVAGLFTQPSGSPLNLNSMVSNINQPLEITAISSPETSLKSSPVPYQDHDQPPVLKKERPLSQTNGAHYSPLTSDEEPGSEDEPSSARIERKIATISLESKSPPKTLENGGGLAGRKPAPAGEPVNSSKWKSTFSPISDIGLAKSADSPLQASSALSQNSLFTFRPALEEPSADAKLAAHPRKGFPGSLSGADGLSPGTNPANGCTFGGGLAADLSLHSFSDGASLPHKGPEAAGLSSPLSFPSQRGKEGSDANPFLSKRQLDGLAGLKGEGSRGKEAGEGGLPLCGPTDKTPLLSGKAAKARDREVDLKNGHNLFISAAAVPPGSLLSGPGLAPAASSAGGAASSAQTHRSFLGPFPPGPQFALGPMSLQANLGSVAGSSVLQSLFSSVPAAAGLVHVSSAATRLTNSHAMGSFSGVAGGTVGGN

[2] = target: T1, Histone-lysine N-methyltransferase, H3 lysine-79 specific; test: Inhibition of human DOT1L by hotspot PMT activity assay
Target sequence in this assay (Q8TEK3 whole entry): as the sequence (Q8TEK3 whole entry, looked up) above

[3] = Elimination rate constant in fasted BALB/c mouse at 20 mg/kg, iv administered upto 600 mins by HPLC-MS/MS analysis; format: ADME, organism-based; conditions: in vivo
[4] = AUC (0 to t) in fasted BALB/c mouse at 20 mg/kg, po administered upto 600 mins by HPLC-MS/MS analysis; format: ADME, organism-based; parameters: dose 20 mg/kg, time < 600 min, route po; conditions: in vivo
[5] = AUC (0 to t) in fasted BALB/c mouse at 20 mg/kg, iv administered upto 600 mins by HPLC-MS/MS analysis; format: ADME, organism-based; parameters: dose 20 mg/kg, time < 600 min, route iv; conditions: in vivo
[6] = Tmax in fasted BALB/c mouse at 20 mg/kg, iv administered upto 600 mins by HPLC-MS/MS analysis; format: ADME, organism-based; conditions: in vivo
[7] = Bioavailability in fasted BALB/c mouse at 20 mg/kg, iv administered upto 600 mins by HPLC-MS/MS analysis; format: ADME, organism-based; conditions: in vivo
[8] = Half life in fasted BALB/c mouse at 20 mg/kg, iv administered upto 600 mins by HPLC-MS/MS analysis; format: ADME, organism-based; conditions: in vivo
[9] = Clearance in fasted BALB/c mouse at 20 mg/kg, iv administered upto 600 mins by HPLC-MS/MS analysis; format: ADME, organism-based; conditions: in vivo
[10] = AUC (0 to infinity) in fasted BALB/c mouse at 20 mg/kg, iv administered upto 600 mins by HPLC-MS/MS analysis; format: ADME, organism-based; parameters: dose 20 mg/kg, time < 600 min, route iv; conditions: in vivo
[11] = Tmax in fasted BALB/c mouse at 20 mg/kg, po administered upto 600 mins by HPLC-MS/MS analysis; format: ADME, organism-based; conditions: in vivo
[12] = AUC (0 to infinity) in fasted BALB/c mouse at 20 mg/kg, po administered upto 600 mins by HPLC-MS/MS analysis; format: ADME, organism-based; parameters: dose 20 mg/kg, time < 600 min, route po; conditions: in vivo
[13] = Cmax in fasted BALB/c mouse at 20 mg/kg, po administered upto 600 mins by HPLC-MS/MS analysis; format: ADME, organism-based; parameters: time < 600 min, dose 20 mg/kg, route po; conditions: in vivo
[14] = Volume of distribution in fasted BALB/c mouse at 20 mg/kg, iv administered upto 600 mins by HPLC-MS/MS analysis; format: ADME, organism-based; conditions: in vivo
[15] = Cmax in fasted BALB/c mouse at 20 mg/kg, iv administered upto 600 mins by HPLC-MS/MS analysis; format: ADME, organism-based; parameters: time < 600 min, dose 20 mg/kg, route iv; conditions: in vivo
[16] = Elimination rate constant in fasted BALB/c mouse at 20 mg/kg, po administered upto 600 mins by HPLC-MS/MS analysis; format: ADME, organism-based; conditions: in vivo
[17] = Half life in fasted BALB/c mouse at 20 mg/kg, po administered upto 600 mins by HPLC-MS/MS analysis; format: ADME, organism-based; conditions: in vivo

## CN(CCCNC(=O)Nc1ccccc1)C[C@H]1C[C@@H](c2cnn3c(N)ccnc23)[C@H](O)[C@@H]1O
[1]
  deltaG: 2.63 kcal/mol

## CC(C)N(C[C@H]1C[C@@H](c2ccc3c(N)ncnn23)[C@H](O)[C@@H]1O)[C@H]1C[C@H](CCc2nc3cc(C(C)(C)C)ccc3[nH]2)C1 (racemic)
[2]
  IC50: 13.8 nM

## CN(CCCNC(=O)Nc1ccc(C(C)(C)C)cc1)C[C@H]1C[C@@H](c2ccc3c(N)ncnn23)[C@H](O)[C@@H]1O (stereo in doubt; (-)-25)
[2]
  IC50: 19 nM
[3]
  k el at 10 h: 9.82e-05 s⁻¹
[4]
  AUC(0-t) at 10 h: 8.07 ng·h/mL
[5]
  AUC(0-t) at 10 h: 3020 ng·h/mL
[6]
  Tmax: 5 min
[7]
  bioavailability: 0.3%
[8]
  half-life: 118 min
[9]
  clearance: 108 mL/min/kg
[10]
  AUC(0-inf): 3080 ng·h/mL
[11]
  Tmax: 5 min
[12]
  AUC(0-inf): 8.53 ng·h/mL
[13]
  Cmax: 36.4 ng/mL
[14]
  Vd: 18.4 L/kg
[15]
  Cmax: 8320 ng/mL
[16]
  k el at 10 h: 0.0017 s⁻¹
[17]
  half-life: 6.78 min

## CN(CCCNC(=O)Nc1ccc(C(C)(C)C)cc1)C[C@H]1C[C@@H](c2ccc3c(N)ncnn23)[C@H](O)[C@@H]1O (stereo in doubt; (+)-25)
[2]
  IC50: 7410 nM

## CN(CCCNC(=O)Nc1ccccc1)C[C@H]1C[C@@H](c2ccc3c(N)ncnn23)[C@H](O)[C@@H]1O
[2]
  IC50: 369 nM

## Nc1ncnn2c([C@@H]3C[C@H](CO)[C@@H](O)[C@H]3O)ccc12
[2]
  IC50: > 10000 nM

## CC(C)N(CCCNC(=O)Nc1ccccc1)C[C@H]1C[C@@H](c2ccc3c(N)ncnn23)[C@H](O)[C@@H]1O
[1]
  deltaG: -0.717 kcal/mol

## CC(C)N(C[C@@H]1C[C@H](c2ccc3c(N)ncnn23)[C@@H](O)[C@H]1O)[C@H]1C[C@@H](CCc2nc3cc(C(C)(C)C)ccc3[nH]2)C1
[2]
  IC50: 80 nM

## CC(C)NC[C@@H]1C[C@H](c2ccc3c(N)ncnn23)[C@@H](O)[C@H]1O
[3]
  k el at 10 h: 0.000173 s⁻¹
[4]
  AUC(0-t) at 10 h: 830 ng·h/mL
[5]
  AUC(0-t) at 10 h: 7170 ng·h/mL
[6]
  Tmax: 5 min
[7]
  bioavailability: 12%
[8]
  half-life: 66.7 min
[9]
  clearance: 46 mL/min/kg
[10]
  AUC(0-inf): 7250 ng·h/mL
[11]
  Tmax: 120 min
[12]
  AUC(0-inf): 845 ng·h/mL
[13]
  Cmax: 645 ng/mL
[14]
  Vd: 4.43 L/kg
[15]
  Cmax: 18400 ng/mL
[16]
  k el at 10 h: 0.000457 s⁻¹
[17]
  half-life: 25.3 min
